Test results from article PMC7508583, “Discovery and Preclinical Development of Antigiardiasis Fumagillol Derivatives” (Antimicrobial Agents and Chemotherapy, 2020).
≈ marks a conversion by molar mass, not a printed value. Read-outs that look alike come from different tables or passages of the source.

Columns and labels:
pH 3 degradation test = type: physicochemical
Method: The dramatic improvement in stability is not surprising, because the ester group of fumagillin is susceptible to hydrolysis at low pH. […] This should enable the administration of lower doses, reducing toxicity risks.
For accelerated temperature degradation tests at 75% relative humidity and at laboratory uncontrolled relative humidity, fumagillin and compounds 3 and 9 were incubated at 37°C under either controlled or uncontrolled humidity, and the samples were analyzed by HPLC every week for 4 weeks. Measurements were made in duplicate. Area-under-the-curve values were calculated to derive the percentage of compound remaining. For pH degradation, the compounds were dissolved in DMSO and mixed with pH 3.0 buffer. The samples were incubated at 25°C for up to 48 h. Samples were analyzed by HPLC every 2 h for the first 8 h and then after 24 and 48 h.

CHO-K1 (CHO) cells = test: CHO cell cytotoxicity, ATP content assay; type: cell-based; details: for IC50: Cricetulus griseus, CHO, 48 h, read-out: IC50 CHO
Method: Cytotoxicity in CHO-K1 (CHO) cells was also determined using the homogeneous ATP content assay with an ATPlite kit, to enable comparison with the IC50 values in the G. lamblia and E. histolytica trophozoites and provide an initial estimate of toxicity risk. Fumagillin served as a comparative control, untreated cells (including 0.5% DMSO) served as a negative control, and puromycin served as a positive control.
CHO cells (180 μl) were seeded at a density of 5,000 cells/well and incubated for 24 h at 37°C in a 5% CO2 incubator in a 96-well plate. The cells were treated with 20 μl fumagillin or fumagillol derivative solutions diluted to obtain final concentrations of 100, 30, 10, 3, 1, and 0.3 μM. Puromycin was diluted from 10 through 0.03 μM. The plates were incubated for 48 h at 37°C in a 5% CO2 incubator. One hundred microliters per well of ATPlite luminescence reagent was added to the plates, the plates were incubated at room temperature for 30 min, and the luminescence signal was measured. The assay was performed in duplicate.

[1] = test system: E. histolytica HM1:IMSS trophozoites; test: Trophozoite viability MLC determination (ameba assay); type: cell-based, Entamoeba histolytica; details: 3 days treatment, 3 days proliferation without drug
Method: The inhibition of metabolism enables the organism to resume proliferation once treatment is completed. To discriminate between the lethality of the promising compounds and the induction of metabolic inactivity by the promising compounds, the minimum lethal concentration (MLC) values were determined by treating the trophozoites with the test compounds for 3 days and transferring the resulting cultures to medium lacking the compounds for 3 days of proliferation. This assay was described previously for G. lamblia ([18]) and was adapted to E. histolytica in the current study. In addition to measuring MLC values in the G. lamblia WB and GS strains and in E. histolytica, the MLCs were also measured in metronidazole-resistant G. lamblia strains 713M3 and 1279-M1, to confirm that these compounds were also effective when the metronidazole resistance mechanism evolved. […] Thus, even though fumagillin is a potent anti-G. lamblia drug, it might act in part by metabolic inhibition. Fumagillin’s IC50 and MLC values in E. histolytica were within the same range, supporting the true killing mechanism.
E. histolytica strain HM1:IMSS trophozoites were grown at 37°C in TYI-S-33 medium supplemented with penicillin (100 U/ml) and streptomycin sulfate (100 μg/ml) ([65]). Trophozoites were grown anaerobically in borosilicate tubes or T25 flasks, and subcultures were made 1 to 2 times a week. Trophozoites were detached for inoculation by chilling the cultures on ice for 20 min.
For the MLC assay, compounds were prepared as described above by 2-fold serial dilutions in fresh growth medium, and 50 μl was transferred into the wells of a 96-well plate in duplicate. Confluent E. histolytica trophozoites were diluted in growth medium to a density of 200 cells/μl. Fifty-microliter cultures were distributed in each well to bring the total assay volume to 100 μl. The plates were kept under an anaerobic environment for 72 h at 37°C. Each well was surveyed under a microscope to visualize trophozoite survival, mobility, and attachment. In all cases, duplicate measurements yielded identical growth/death transitions. The plates were chilled on ice for 30 min, and the entire content of each of 4 wells within the growth/death transition of one of the duplicate experiments was transferred for proliferation into 8-ml tubes containing growth medium and no drug. The tubes were incubated under anaerobic condition for 3 days at 37°C and checked under a microscope. The MLC value was the concentration in the tube with the lowest compound concentration without any live organism.

human MetAP2 = molecular target: T1, human MetAP2 (Homo sapiens, UniProt P50579); test: MetAP2 fluorescence assay; type: biochemical; details: for IC50 of compound/IC50 of fumagillin: human MetAP2
T1 construct: purchased Bio-Techne/R&D Systems
T1 sequence (P50579 whole entry): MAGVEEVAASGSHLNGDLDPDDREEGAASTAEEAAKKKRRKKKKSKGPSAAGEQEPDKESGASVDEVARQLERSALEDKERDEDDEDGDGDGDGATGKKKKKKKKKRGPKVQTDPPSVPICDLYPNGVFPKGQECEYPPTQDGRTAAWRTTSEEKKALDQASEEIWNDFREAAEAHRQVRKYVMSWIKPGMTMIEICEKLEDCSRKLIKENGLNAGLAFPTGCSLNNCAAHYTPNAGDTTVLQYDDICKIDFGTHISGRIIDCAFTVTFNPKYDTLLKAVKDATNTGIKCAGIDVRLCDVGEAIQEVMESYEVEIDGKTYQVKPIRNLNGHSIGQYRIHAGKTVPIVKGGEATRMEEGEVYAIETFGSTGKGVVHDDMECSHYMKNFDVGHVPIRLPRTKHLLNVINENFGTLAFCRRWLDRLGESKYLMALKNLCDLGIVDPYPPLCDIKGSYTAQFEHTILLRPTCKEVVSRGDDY
Method: Based on the available crystal structures of MetAP2 complexes, the fumagillol core binds in a crowded environment, forming exquisite electrostatic interactions. Therefore, there is little room for the core fumagillol scaffold to adopt a different mode of binding. In contrast, the R group at C-6 can vary substantially because it is mostly solvent exposed. The L groups bind in a narrow site at the active-site entrance.
Recombinant human MetAP2 (Bio-Techne/R&D Systems) was diluted to 10 μg/ml in the assay buffer (50 mM HEPES, 0.1 mM CoCl2, 100 mM NaCl, pH 7.5). The substrate H-Met-Gly-Pro-7-amido-4-methylcoumarin (Bio-Techne/R&D Systems) was diluted to 500 μM with 2 μg/ml of the coupling enzyme, recombinant human dipeptidyl peptidase 4 (Bio-Techne/R&D Systems), in assay buffer. Fifty microliters of 10-μg/ml recombinant human MetAP2 was loaded into a flat-bottom black 96-well plate (Greiner Bio), and the reaction was initiated by adding 50 μl of the substrate/dipeptidyl peptidase 4 mixture. The reaction mixture was incubated at room temperature for 10 min, and the fluorescence was measured for 5 min at excitation and emission wavelengths of 380 nm and 460 nm, respectively, in the kinetic mode. For IC50 determination, 0.5 μl inhibitor solution was added to the reaction mixture. […] The reaction rates were fitted to a 4-parameter logistic nonlinear regression model using the KaleidaGraph tool, yielding the IC50 values and standard error.

[2] = recombinant human MetAP2, fluorescence assay, read-out: Mean ± SE IC50, inhibition of human MetAP2

COC1C(OC(=O)NC(=O)CN2CCOCC2)CCC2(CO2)C1C1(C)OC1CC=C(C)C (centres unmarked) [Compound 3]
half-life (pH 3 degradation test; buffer, pH 3): 17.2 ± 2.26 h | IC50 (CHO-K1 (CHO) cells; cytotoxicity, ATP content): > 100 µM | MLC E. histolytica HM:IMSS [1]: 3.9 nM (≈ 1.76 ng/mL) | IC50 of compound/IC50 of fumagillin (human MetAP2): 1.68 | IC50 (human MetAP2; [2]): 0.00067 ± 2e-05 µM

COC1C(OC(=O)NC(=O)CN2CCC(O)CC2)CCC2(CO2)C1C1(C)OC1CC=C(C)C (centres unmarked) [Compound 4]
IC50 (CHO-K1 (CHO) cells; cytotoxicity, ATP content): > 100 µM | MLC E. histolytica HM:IMSS [1]: 7.8 nM (≈ 3.64 ng/mL)

CO[C@@H]1[C@H](OC(=O)Nc2ccc(C(=O)O)cc2)CC[C@]2(CO2)[C@H]1[C@@]1(C)O[C@@H]1CC=C(C)C [Compound 9, 4-(((((3R,4S,5S,6R)-5-methoxy-4-((2R,3R)-2-methyl-3-(3-methylbut-2-en-1-yl)oxiran-2-yl)-1-oxaspiro[2.5]octan-6-yl)oxy)carbonyl)amino)benzoic acid]
half-life (pH 3 degradation test; buffer, pH 3): 43.2 ± 1.45 h | IC50 (CHO-K1 (CHO) cells): > 100 µM | MLC E. histolytica HM:IMSS [1]: 31.3 nM (≈ 13.9 ng/mL) | IC50 (human MetAP2): 0.0011 ± 0.0003 µM

CCOC(=O)Cc1ccc(NC(=O)OC2CCC3(CO3)C(C3(C)OC3CC=C(C)C)C2OC)cc1 (centres unmarked) [Compound 11]
IC50 (CHO-K1 (CHO) cells; cytotoxicity, ATP content): > 100 µM | MLC E. histolytica HM:IMSS [1]: 125 nM (≈ 60.9 ng/mL)

COC1C(OC(=O)N2CCC(O)CC2)CCC2(CO2)C1C1(C)OC1CC=C(C)C (centres unmarked) [Compound 16]
IC50 (CHO-K1 (CHO) cells; cytotoxicity, ATP content): > 100 µM | MLC E. histolytica HM:IMSS [1]: 3.9 nM (≈ 1.6 ng/mL)

CO[C@@H]1[C@H](OC(=O)/C=C/C=C/C=C/C=C/C(=O)O)CC[C@]2(CO2)[C@H]1[C@@]1(C)O[C@@H]1CC=C(C)C [Fumagillin, reference compound]
half-life (pH 3 degradation test; pH 3.0 buffer, pH 3, 25°C, read-out: Mean ± SE half-life at pH 3 and 25°C (converted)): 1.42 ± 0.05 h | IC50 (CHO-K1 (CHO) cells): > 100 µM | MLC E. histolytica HM:IMSS [1]: 78 nM (≈ 35.8 ng/mL) | IC50 of compound/IC50 of fumagillin (human MetAP2): 1 | IC50 (human MetAP2; [2]): 0.0004 ± 3e-05 µM

Cc1ncc([N+](=O)[O-])n1CCO [Metronidazole, reference compound]
selectivity, IC50 for CHO cells/IC50 for amebae (CHO-K1 (CHO) cells; vs E. histolytica): > 10 | selectivity, IC50 for CHO cells/IC50 for giardia (CHO-K1 (CHO) cells; vs G. lamblia trophozoites): < 10 | MLC E. histolytica HM:IMSS [1]: 1,500 nM
